The record followed here is article PMC12419465, “Photoresponsive molecular tweezers modulate Taspase 1 activity” (RSC Chemical Biology, 2025).

The experiment concerns the target T1, Taspase 1/Importin α interaction (Homo sapiens, UniProt Q9H6P5, D233A/T234A).
T1 construct: with full-length Taspase 1 in the recombinant pull-down assay
T1 sequence (Q9H6P5 1-420 D233A/T234A): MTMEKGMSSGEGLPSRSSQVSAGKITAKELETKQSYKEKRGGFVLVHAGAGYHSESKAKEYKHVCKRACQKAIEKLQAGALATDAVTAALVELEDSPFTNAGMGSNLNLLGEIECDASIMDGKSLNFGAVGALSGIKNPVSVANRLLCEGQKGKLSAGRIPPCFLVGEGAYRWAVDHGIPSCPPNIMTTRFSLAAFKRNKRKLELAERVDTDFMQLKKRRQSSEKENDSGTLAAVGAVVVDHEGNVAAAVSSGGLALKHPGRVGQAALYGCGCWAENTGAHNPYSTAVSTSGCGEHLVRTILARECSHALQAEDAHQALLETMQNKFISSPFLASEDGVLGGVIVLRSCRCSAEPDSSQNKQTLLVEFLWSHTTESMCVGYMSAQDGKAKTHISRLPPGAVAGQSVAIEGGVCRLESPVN
As to the kind of experiment: Recombinant pull-down assay, GST-Importin α bait and Taspase 1-His prey. Type of experiment: biochemical. The conditions noted are these: percentage of the PPI of Importin α with full-length Taspase 1, ligand conc. 25 µM, n = 3. The protocol:
Pull-down assay: recombinant pull-down assays were performed as described.[9,10] For details on the assay workflow, see SI (Fig. S6).
Pull-down assays were conducted with 100 μM of TWAAP3 in either its Z or E isomer form or left untreated (un.), omitting the ligand. […] To achieve the respective Z or E isomer, TWAAP3 was irradiated with UV light (365 nm) or green light (520 nm) prior to incubation. All samples contained 3% DMSO during ligand incubation. Negative controls included samples lacking either GST-Importin α (-Iα) or Taspase 1 (-T). *, p < 0.05, t-test. Composed with https://BioRender.com.
Figure S6. Controls for pull-down assays with TWAAP constructs. A. Schematic assay
representation: GST -Importin α was immobilized on a glutathione -coated Sepharose matrix in a spin
column. After GST binding, Taspase 1-His pre-incubated with tweezer constructs was added. […]

For the molecule `Cc1nn(-c2ccc(-c3cn(CCOP(=O)(O)Oc4c5c(c(OP(=O)(O)O)c6c4C4CC6c6cc7c(cc64)C4CC7c6ccccc64)C4CC5c5cc6c(cc54)C4CC6c5ccccc54)nn3)cc2)c(C)c1N=Nc1ccc(-c2ccc(-c3cn(CCOP(=O)(O)Oc4c5c(c(OP(=O)(O)O)c6c4C4CC6c6cc7c(cc64)C4CC7c6ccccc64)C4CC5c5cc6c(cc54)C4CC6c5ccccc54)nn3)cc2)cc1` [TWAAP3], the “PPI TW (pull-down, full-length protein)” value reads like this: (E isomer) 90%; (Z isomer) 60%.
